Columns and labels:
[1] = system: B. subtilis 168 and mtn region mutants; experiment: Growth on MTR as sole sulfur source (ED1 minimal medium plates); format: cell-based, Bacillus subtilis; conditions: mtnX mutant, strain BFS1852, in the absence of IPTG
[2] = system: Strain BSHP7014 (mtnW:lacZ amyE::pxyl mtnXYZ); experiment: Toxicity of MTR for BSHP7014 strain (paper disc on ED1 minimal medium plates); format: cell-based, Bacillus subtilis
Protocol: Toxicity of MTR for BSHP7014 strain. Strain BSHP7014 (mtnW:lacZ amyE::pxyl mtnXYZ) was grown on ED1 minimal medium plates in the presence of sulfate as sulfur source (panel A) or in the absence of any added sulfur source (agar as sole sulfur source, panel B). Xylose was added to the medium in order to trigger the expression of mtnXYZ from the pxyl promoter, 10 μl of methionine (met) or MTR was adsorbed on paper discs and plates were incubated over-night at 37° C. Methionine was used as a control for growth and/or toxicity of the sulfur source.
Two genes in the pathway are dispensable, mtnV and mtnX. The first one encodes a transaminase of which there are nine putative paralogs in the genome of B. subtilis (YwfG, AlaT, AspB, PatA, YhdR, YdfD, PatB, YisV, and HisC). In the same way, MtnX (YkrX) is a member of the phosphatase family pfam00702 ([12], FIG. 6), and therefore of a ubiquitous class of hydrolases (several phosphatase genes, in particular are present in the genome of B. subtilis). This is likely to account for the lack of phenotype under our growth conditions. […] In contrast, we discovered that MTR is toxic when the distal genes are present (when used as sole sulfur source or in the presence of sulfate, see FIG. 7). Because of the weak phenotype of a mtnZ mutant and the absence of phenotype of a mtnX mutant, we can be confident that MtnY acts before MtnW (this is a common feature in operons, where it is generally observed that the more distal genes code for proteins acting in the more proximate steps of the pathway).
Bacterial strains and plasmids, and growth media: E. coli and B. subtilis strains as well as plasmids used in this work are listed in Table 3. E. coli TG1 and XL1-Blue were used for cloning experiments (TG1 for single cross-over recombination and XL1-Blue for double cross-over recombination). Despite the fact that there are no public regulations yet in this domain in China, all experiments were performed in accordance with the European regulation requirements concerning the contained use of Genetically Modified Organisms of Group-I (French agreement N^o 2735). […] In the latter case, 10 [μl of the sulfur source under investigation was applicated onto paper discs (MTR, 200 mM stock solution and methionine, 100 mM stock solution) deposited at the center of the plate, after bacteria had been uniformly spread at the surface of the plate, and growth was measured around the disK. […] The optical density (OD) of bacterial cultures was measured at 600 nm. […]

CSC[C@@H](O)[C@@H](O)[C@@H](O)C=O [MTR, methylthioribose]
Growth on MTR as sole sulfur source [1]: failed to grow | Toxicity of MTR to the cell ([2]; mtnU mutant, mtnY functional): toxic | Influence of MTR on sulfate supplemented plates ([2]; mtnW inactivated with a polar effect on the distal genes): lack of influence | Toxicity of MTR to the cell ([2]; mtnW mutant with distal genes mtnXYZ present, MTR as sole sulfur source or in the presence of sulfate): extremely toxic

Reference: US20040019066A1, “Methionine salvage pathway in bacillus” (priority 2002, published 2004)
